The text below walks through data of patent publication US20030161893A1, “PTPase inhibitors and methods of using the same” (priority 2001, published 2003).

Molecules are shown by their SMILES.

One test deals with T1, MKP1 (Homo sapiens, UniProt P28562).
T1 construct: a pGEX construct containing the coding region of MKP1 cDNA derived by RT-PCR; made in house; host or cells: DH5a bacteria (E. coli)
T1 sequence (P28562 1-367): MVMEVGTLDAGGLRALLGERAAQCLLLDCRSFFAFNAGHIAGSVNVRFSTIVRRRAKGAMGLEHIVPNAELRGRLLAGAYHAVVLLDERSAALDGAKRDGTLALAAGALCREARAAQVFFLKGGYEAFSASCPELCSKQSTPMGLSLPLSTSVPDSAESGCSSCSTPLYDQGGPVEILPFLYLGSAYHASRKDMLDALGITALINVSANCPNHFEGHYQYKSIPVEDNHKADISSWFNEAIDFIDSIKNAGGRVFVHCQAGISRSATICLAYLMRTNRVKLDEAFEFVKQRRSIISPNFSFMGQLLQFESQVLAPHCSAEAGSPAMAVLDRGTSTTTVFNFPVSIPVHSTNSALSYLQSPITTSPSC
The experiment in a line: In vitro PTPase assay, GST/MKP1 fusion protein. In kind it is biochemical.

A further test has as its system NB4 cells. Kind of test: NB4 cell growth (MTT), cell cycle and Annexin V. Type of test: cell-based, human. As to the method:
The NB4 cell line (Lanotte et al., Blood 77, 1080 (1991)) was a gift from Dr. Dan Lindner of the Cleveland Clinic Foundation. […] and U937 cell lines were purchased from American Type Culture Collection (Rockville, Md.). These human […] cell lines were maintained in RPMI 1640 medium supplemented with 10% fetal calf serum (FCS). For cell proliferation assays, cells were cultured at 37° C. in 10% FCS medium containing various amounts of sodium stibogluconate for 6 days. The cell numbers in the cultures were determined by an MTT assay as described previously in Mosmann, J. Imunol. Methods 65, 55 (1983).
The cell cycle was analyzed by flow cytometry after 3 days of culture of NB4 cells in the absence or presence of sodium stibogluconate (250 μg/ml) or ATRA (1 μM). Briefly, the cells were fixed in cold ethanol and incubated for 30 minutes at 4° C. in the dark with a solution of […] propidium iodide, 1 mg/ml RNase and 0.1% NP-40. Analysis was performed immediately after staining using the CELLFIT program (Becton Dickinson, Mountain View, Calif.).
Annexin V staining of exposed membrane phospholipid phosphatidylserine (PS) was done using the Annexin V assay kit (Pharmingen, San Diego, Calif.). Briefly, NB4 cells were cultured in the 10% FCS RPMI 1640 medium in the absence or presence of sodium stibogluconate (250 μg/ml) or ATRA (1 μM) for 3 days. Cells were then washed in PBS twice and stained in binding buffer (10 mM Hepes, pH 7.4; 140 mM NaCl; 2.5 mM CaCl2) containing Annexin V-FITC and propidium iodide for 15 min. The reaction was stopped by adding 10 volumes of binding buffer and analyzed by FACS (Becton Dickinson Facsvantage).

The next test deals with DU145 cells. The experiment in a line: Cell proliferation assay (MTT), DU145 prostate cancer cells. In kind it is cell-based, human. How it is done: For cell proliferation assays, cells were grown in 10% FCS culture medium containing various amounts of IFNs and/or sodium stibogluconate in 96 well plates and cultured at 37° C. for 3 or 6 days as indicated. The numbers of viable cells in proliferation assays were determined by MTT assays as described in Phatak et al., J. Immunol. 167, 3391 (2001).
NIH3T3 (Yi, et al., Blood 85, 87 (1995)), WM9 (Forsberg, et al., Proc. Nat. Acad Sci. USA 90, 393 (1993)), DU145 (Mickey, et al., Cancer Res. 37, 4049 (1977)), LoVo (Drewinko, et al., Cancer Res. 36, 467 (1976)), HEY (Buick, et al., Cancer Res. 45, 3668 (1985)), U251 (Yoshida, et al., Cancer 50, 410 (1982)), A549 (Giard, et al., J. Natl. Cancer Inst. 51, 1417 (1973)) and SK-N-SH (Helson, et al., Cancer Res. 35, 2594 (1975)) cell lines have been described and were cultured in RPMI 1640 supplemented with 10% fetal calf serum (FCS). For measurement of sodium stibogluconate effects on cell growth in vitro, cells were cultured in the absence (−) or presence (+) of various amounts of sodium stibogluconate for 6 days with viable cells quantified by MTT assays (Mosmann, J. Imunol. Methods 65, 55 (1983)). Percentages of growth inhibition by sodium stibogluconate were calculated (+/−×%).

Another test has as its system Stat1. Kind of test: IFN-alpha-induced Stat1 tyrosine phosphorylation, DR cells. In kind it is cell-based, human. As to the method:
For induction of Stat1 tyrosine phosphorylation by IFN-alpha in the absence or presence of sodium stibogluconate, cells grown in 10% FCS RPMI 1640 medium at 37° C. were stimulated with IFN-alpha (50 u/ml) for various time points and treated with or without sodium stibogluconate for 5 minutes prior to termination by lysing the cells in cold lysis buffer (1% NP-40; 50 mM Tris, pH 7.4; 100 mM NaCl; 1 mM EDTA, 10% glycerol, 10 mM sodium molybdic acid and 4 mM AEBSF).
Cell lysates were prepared by lysing cells in cold lysis buffer for 30 min and cleared by centrifuging at 14,000 rpm at 4° C. for 15 min. For SDS-PAGE, cell lysates were mixed with equal volume of 2×SDS-PAGE sample buffer, heated at 90° C. for 5 min and separated in 10% SDS-PAGE gels. Cellular proteins in SDS-PAGE gels were transferred to nitrocellulose membrane (Schleicher & Schuell, Keene, N.H.), blocked in 5% milk, probed with antibodies and detected by using an enhanced chemiluminescence kit (ECL, Amersham, Arlington Heights, Ill.).

For the compound `O.O.O.O.O.O.O.O.O.O=C([O-])[C@@H]1[O][Sb]2([O-])([O][Sb]34([OH])[O][C@H]([C@H](O)CO)[C@H]([O]3)[C@H](C(=O)[O-])[O]4)[O][C@H]([C@H](O)CO)[C@@H]1[O]2.[Na+].[Na+].[Na+]` [sodium stibogluconate], at MKP1, the “inhibition of MKP1” value is “no obvious effects” and the “inhibitory activity against MKP1” value is given as “no obvious inhibitory activity”. Also, the “Annexin V staining of NB4 cells” value in the test on NB4 cells (250 μg/ml, 6 days) is “stained positive by Annexin V”. Besides, the “proliferation of NB4 cells” value with NB4 cells (12.5-400 μg/ml, MTT) is reported as “markedly inhibited”. In the test on NB4 cells (3 days, sodium stibogluconate 250 μg/ml, ATRA 1 μM), the “cell cycle of NB4 cells” value was “significant increase of cells at S phase”. For the same compound, the “killing of DU145 cells, single agent” value in the test with DU145 cells (50 μg/ml and 100 μg/ml, day 6 culture) is reported as “killed all cells”. The “cell killing, DU145” value in the test on DU145 cells (100 μg/ml, day 6) is on record as “near-complete cell killing”. In addition, the “IFN-alpha-induced growth inhibition of DU145 in presence of drug” value in the test with DU145 cells (day 6) was “augmented”. For the same compound, in the test on Stat1 (10 μg/ml, 30 min post-stimulation), the “IFN-alpha-induced Stat1 tyrosine phosphorylation versus control” value is “two folds greater than control”. For the same compound, the “Stat1 tyrosine phosphorylation by drug alone” value with Stat1 (absence of IFN-alpha) is reported as “failed to induce Stat1 tyrosine phosphorylation”.
